Assay results as given in US10455835B2, “Fungicidal compositions for controlling leaf spots in sugar beets” (Dow AgroSciences LLC, priority 2012, dated 2019).

Tested on: Cercospora beticola (CERCBE)
Test: Activity vs. sugar beet leaf spot on inoculated sugar beet plants (disease severity)
Format: in vivo
Details: sugar beet 'HH88', factorial analysis across all rates and replicates
Description: Evaluation of Protectant Activity of Fungicide Mixtures vs. sugar beet leaf spot caused by Cercospora beticola (CERCBE). Sugar beet plants (variety ‘HH88’) were grown in soil-less Metro mix and trimmed regularly to maintain an uniform plant size prior to test. To prepare inoculum, dried diseased beet leaves were placed in a moist chamber overnight to promote sporulation. Spores were rinsed off leaves with distilled water, filtered through cheesecloth to remove plant debris, then adjusted to 4×10^4 spores/ml. Tween 20 was added at 3 drops per 100 ml. Sugar beet seedlings were inoculated 3 days prior to or 4 to 5 days after fungicide treatments. Inoculated plants were kept in a dew chamber at 22° C. for 48 hr then incubated in a greenhouse set at 24° C. under a clear plastic hood until disease symptoms were fully expressed. Disease severity was assessed on both treated and untreated plants.
The following fungicides were used for an efficacy example:
The efficacy of various formulations is shown in the table below wherein the values are percent disease severity. Results of the factorial analysis across all rates and replicates.

What does the source list for `CC1COC(Cn2cncn2)(c2ccc(Oc3ccc(Cl)cc3)cc2Cl)O1` (centres unmarked) [difenconazole, 1H-1,2,4-Triazole, 1-((2-(2-chloro-4-(4-chlorophenoxy)phenyl)-4-methyl-1,3-dioxolan-2-yl)methyl)-]?
percent disease severity (Ex. 1, 3DC (inoculated 3 days prior to fungicide treatment), untreated disease severity 23.0): 1.2 b percent; percent disease severity (Ex. 2, 5DP (inoculated 5 days after fungicide treatment), untreated disease severity 31.0): 2.2 b percent; percent disease severity (Ex. 3, 3DC (inoculated 3 days prior to fungicide treatment), untreated disease severity 48.0): 0.6 c percent; percent disease severity (Ex. 4, 4DP (inoculated 4 days after fungicide treatment), untreated disease severity 35.0): 2.5 b percent; percent disease severity (Ex. 5, 3DC (inoculated 3 days prior to fungicide treatment), untreated disease severity 26.0): 0.4 c percent
